Measured values published in US5192799A, “Coumaran group containing amine compounds and their acid addition salts and quaternary ammonium salts and the use thereof as anti arrhythmic agents and as psychotropic agents” (Mitsui Petrochemical Industries, Ltd., priority 1987, dated 1993).

Legend:
Purkinje fiber = assay: Effect on APD (APD75, field-stimulated right ventricular free wall); type: cell-based, adult mongrel dog; conditions: 20 minutes incubation, 37° C., 1 Hz, control before drug = 100%; for activation at 1 µg/mL / activation at 3 µg/mL / activation at 10 µg/mL: Canis lupus familiaris, purkinje, 20 min, read-out: APD75 % (percent change in APD75)
Method: The pharmacological effects of the compounds of this invention represented by general formula (1) were studied. By using the heart of an adult mongrel dog, the activity of the compounds of general formula (1) were tested in vitro and in vivo. The heart of an anaethetized dog was extracted and suspended in a chamber at 37° C. in Tyrode's solution. The drug was added to Tyrode's solution being perfused through the heart specimen, and electrophysiological effects of the drug on cardiac action potential duration (APD) and maximum rate of depolarization were studied. An anaethetized dog was cut open at the chest.
An adult mongrel dog was anaethetized with intravenous administration of pentobarbital, 30 mg/kg. The heart was quickly removed, and the right ventricular free wall was dissected in the Tyrode's solution. The right ventricular free wall was fixed within an incubator at 37° C., and field stimulation at 1 Hz was carried out. Intracellular potentials were measured by piercing glass microelectrodes (10-20 megaohms) into the Purkinje fiber and the wave form of cardiac action potential drawn on an oscilloBraun tube via an amplifier was analyzed by a computer. Value of APD was obtained at 75% of full repolarization (APD75). The drug was added to Tyrode's solution (20 ml) perfused through the specimen. The effect of the drug was expressed by a percent change in APD75 after incubation for 20 minutes with the control value of APD before application of the drug being taken as 100%.

[1] = test system: right ventricle (effective refractory period); assay: Activity on ERP of the right ventricle; type: in vivo, adult mongrel dog; conditions: Canis lupus familiaris, iv, ERP before drug = 100%, read-out: ERP % (ERP prolonging activity); for change in vivo at 0.1 mg/kg: 0.1 mg/kg i.v.; for change in vivo at 0.3 mg/kg: 0.3 mg/kg i.v.; for change in vivo at 1 mg/kg: 1 mg/kg i.v.; for change in vivo at 3 mg/kg: 3 mg/kg i.v.
Method: The pharmacological effects of the compounds of this invention represented by general formula (1) were studied. By using the heart of an adult mongrel dog, the activity of the compounds of general formula (1) were tested in vitro and in vivo. The heart of an anaethetized dog was extracted and suspended in a chamber at 37° C. in Tyrode's solution. The drug was added to Tyrode's solution being perfused through the heart specimen, and electrophysiological effects of the drug on cardiac action potential duration (APD) and maximum rate of depolarization were studied. An anaethetized dog was cut open at the chest. […] In an anaethetized and open-chested adult mongrel dug, a silver-silver chloride electrode was sutured to the right ventricle, and ventricular pacing was performed at a stimulation interval of 400 msec for a duration time of 4 msec, twice diastolic threshold. Then, a small amount of alcohol was injected through the sinus artery to extinguish the pacemaker activity, and under ventricular pacing, ERP was measured. Ten stimulations were taken as one train, and the interval between trains when the response to the first stimulation disappeared was defined as ERP. […] ERP before drug administration (intravenously or intraduodenally) was taken as 100%, and ERP prolonging activity of the drugs was expressed by %.

in vivo = conditions: mouse, in vivo, po, LD50 p.o., p.o., 24 hours after administration, male ddY mice
Method: By using male ddY-strain 5-week old mice (3 to 4 per group), the compounds of general formula (1) were each administered orally or intraperitoneally as a solution in saline or as a suspension in methyl cellulose, and 24 hours after the administration, the toxicity of the compounds was evaluated.

O=C1COc2cc(OCCCN[C@@H]3C[C@H]4CC[C@@H]3C4)ccc21 (relative stereo) [Compound 168]
activation at 1 µg/mL (Purkinje fiber; dose 1 μg/ml): 0%
activation at 3 µg/mL (Purkinje fiber; dose 3 μg/ml): 3%

C[C@H]1C[C@H](C)CN(CCCOc2ccc3c(c2)OCC3=O)C1 (relative stereo) [Compound 1129]
activation at 3 µg/mL (Purkinje fiber; dose 3 μg/ml): 7%

CCCCCCC[N+](CC)(CC)CCCCc1ccc(Cl)cc1 [Clofilium, reference compound]
activation at 10 µg/mL (Purkinje fiber; dose 10 μg/ml): 15%
change in vivo at 0.1 mg/kg [1]: 7 ± 1.3%
change in vivo at 0.3 mg/kg [1]: 15.2 ± 2.4%
change in vivo at 1 mg/kg [1]: 22.4 ± 1.6%

CCCCCCCN(CC)CCCOc1ccc2c(c1)OCC2=O [Compound 100]
activation at 1 µg/mL (Purkinje fiber; dose 1 μg/ml): 21%
activation at 3 µg/mL (Purkinje fiber; dose 3 μg/ml): 31%

CCCCCCCN(CC)CCCOc1ccc2c(c1)OCC2=O [Compound 104]
APD75 % (percent change in APD75) (Purkinje fiber; dose 1 μg/ml): 21%
APD75 % (percent change in APD75) (Purkinje fiber; dose 3 μg/ml): 30%

CCCCCN(CC)CCCOc1ccc2c(c1)OCC2=O [Compound 108]
activation at 1 µg/mL (Purkinje fiber; dose 1 μg/ml): 0%
activation at 3 µg/mL (Purkinje fiber; dose 3 μg/ml): 2%

CCN(CCCOc1ccc2c(c1)OCC2=O)C12CC3CC(CC(C3)C1)C2 [Compound 172]
activation at 1 µg/mL (Purkinje fiber; dose 1 μg/ml): 0%
activation at 3 µg/mL (Purkinje fiber; dose 3 μg/ml): 8%

CCCN(CCCOc1ccc2c(c1)OCC2=O)CCOC [Compound 180]
activation at 1 µg/mL (Purkinje fiber; dose 1 μg/ml): 5%
activation at 3 µg/mL (Purkinje fiber; dose 3 μg/ml): 11%
activation at 10 µg/mL (Purkinje fiber; dose 10 μg/ml): 15%

CCCCN(CCCC)CCOc1ccc2c(c1)OCC2=O [Compound 204]
activation at 1 µg/mL (Purkinje fiber; dose 1 μg/ml): 3%
activation at 3 µg/mL (Purkinje fiber; dose 3 μg/ml): 7%
activation at 10 µg/mL (Purkinje fiber; dose 10 μg/ml): 8%

CCCCCCCN(CC)CC(O)COc1ccc2c(c1)OCC2=O (centres unmarked) [Compound 214, 6-[3-(N-ethyl-N-heptylamino)-2-hydroxypropyloxy]coumaran-3-one]
activation at 1 µg/mL (Purkinje fiber; dose 1 μg/ml): 15%
activation at 3 µg/mL (Purkinje fiber; dose 3 μg/ml): 15%

CSC(=NC#N)N(C)CCCOc1ccc2c(c1)OCC2=O [Compound 271]
LD50 at 24 h (in vivo): > 300 mg/kg

CC(C)NCC(O)COc1ccc2c(c1)OCC2=O (centres unmarked) [Compound 272]
activation at 3 µg/mL (Purkinje fiber; dose 3 μg/ml): 8%
activation at 10 µg/mL (Purkinje fiber; dose 10 μg/ml): 10%

COCCN(CCCOc1ccc2c(c1)OCC2=O)CCOC [Compound 276]
activation at 1 µg/mL (Purkinje fiber; dose 1 μg/ml): 5%
activation at 3 µg/mL (Purkinje fiber; dose 3 μg/ml): 12%
activation at 10 µg/mL (Purkinje fiber; dose 10 μg/ml): 23%
change in vivo at 0.1 mg/kg [1]: 0%
change in vivo at 0.3 mg/kg [1]: 0%
change in vivo at 1 mg/kg [1]: 7%
change in vivo at 3 mg/kg [1]: 7%

CCCN(CCCOc1ccc2c(c1)OCC2=O)CCC(=O)OCC [Compound 281]
LD50 at 24 h (in vivo): > 300 mg/kg

CCCCCCC[N+](CC)(CC)CCCOc1ccc2c(c1OC)OCC2=O [Compound 289]
activation at 1 µg/mL (Purkinje fiber; dose 1 μg/ml): 7%
activation at 3 µg/mL (Purkinje fiber; dose 3 μg/ml): 8%

CCCCCCC[N+](CC)(CC)CCCOc1cc(OC)c2c(c1)OCC2=O [Compound 290]
activation at 3 µg/mL (Purkinje fiber; dose 3 μg/ml): 11%
activation at 10 µg/mL (Purkinje fiber; dose 10 μg/ml): 35%

CCCCCCC[N+](CC)(CC)CC(O)COc1ccc2c(c1)OCC2=O (centres unmarked) [Compound 292]
activation at 1 µg/mL (Purkinje fiber; dose 1 μg/ml): 15%
activation at 3 µg/mL (Purkinje fiber; dose 3 μg/ml): 25%
activation at 10 µg/mL (Purkinje fiber; dose 10 μg/ml): 28%
change in vivo at 0.1 mg/kg [1]: 8%
change in vivo at 0.3 mg/kg [1]: 8%
change in vivo at 1 mg/kg [1]: 8%

CCCC[N+](CCCC)(CCCC)CCCOc1ccc2c(c1)OCC2=O [Compound 293]
activation at 1 µg/mL (Purkinje fiber; dose 1 μg/ml): 0%
activation at 3 µg/mL (Purkinje fiber; dose 3 μg/ml): 4%

C=CC[N+](CC)(CCCOc1ccc2c(c1)OCC2=O)C1CCCCC1 (centres unmarked) [Compound 294]
activation at 3 µg/mL (Purkinje fiber; dose 3 μg/ml): 11%
activation at 10 µg/mL (Purkinje fiber; dose 10 μg/ml): 35%

CCCCCCC[N+](CC)(CC)CCCOc1cccc2c1OCC2=O [Compound 295]
LD50 at 24 h (in vivo): > 300 mg/kg

CCCCCCCN(CC)CCCOc1ccc2c(c1)OC(C)(CC)C2C (centres unmarked) [Compound 404]
activation at 3 µg/mL (Purkinje fiber; dose 3 μg/ml): 4%

CCCCCCC[N+](CC)(CC)CCCOc1ccc2c(c1)OCC2 [Compound 422]
activation at 1 µg/mL (Purkinje fiber; dose 1 μg/ml): 0%
activation at 3 µg/mL (Purkinje fiber; dose 3 μg/ml): 3%

CCCCCCC[N+](CC)(CC)CCCOc1ccc2c(C)c(C)c(=O)oc2c1 [Compound 634]
activation at 1 µg/mL (Purkinje fiber; dose 1 μg/ml): 4%
activation at 3 µg/mL (Purkinje fiber; dose 3 μg/ml): 7%
activation at 10 µg/mL (Purkinje fiber; dose 10 μg/ml): 11%

CCCCCCC[N+](CC)(CC)CCCOc1ccc2ccc(=O)oc2c1 [Compound 638]
activation at 1 µg/mL (Purkinje fiber; dose 1 μg/ml): 0%
activation at 3 µg/mL (Purkinje fiber; dose 3 μg/ml): 7%

CCCCCCC[N+](CC)(CC)CCCOc1ccc2c(c1)CCC2 [Compound 770]
activation at 1 µg/mL (Purkinje fiber; dose 1 μg/ml): 0%
activation at 3 µg/mL (Purkinje fiber; dose 3 μg/ml): 7%

CCCCCCC[N+](CC)(CC)CCCOc1ccc2c(c1)OC(C)(CC)CC2=O (centres unmarked) [Compound 820]
activation at 1 µg/mL (Purkinje fiber; dose 1 μg/ml): 4%
activation at 3 µg/mL (Purkinje fiber; dose 3 μg/ml): 5%

CCCCCCCN(CC)CCCOc1ccc2sc(=O)oc2c1 [Compound 952]
activation at 1 µg/mL (Purkinje fiber; dose 1 μg/ml): 0%
activation at 3 µg/mL (Purkinje fiber; dose 3 μg/ml): 3%
activation at 10 µg/mL (Purkinje fiber; dose 10 μg/ml): 7%

C=CCc1ccccc1OCC(O)C[N+](C)(C)C(C)C (centres unmarked) [Compound 1020]
activation at 1 µg/mL (Purkinje fiber; dose 1 μg/ml): 10%
activation at 3 µg/mL (Purkinje fiber; dose 3 μg/ml): 14%
activation at 10 µg/mL (Purkinje fiber; dose 10 μg/ml): 19%

CCCCCCC[N+](CC)(CC)CCCOc1ccccc1C=CC(C)=O [Compound 1022]
activation at 1 µg/mL (Purkinje fiber; dose 1 μg/ml): 0%
activation at 3 µg/mL (Purkinje fiber; dose 3 μg/ml): 11%
activation at 10 µg/mL (Purkinje fiber; dose 10 μg/ml): 18%

O=C1COc2cc(OCCCN3CCCC3)ccc21 [Compound 1102]
activation at 3 µg/mL (Purkinje fiber; dose 3 μg/ml): 6%

CC1CCN(CCCOc2ccc3c(c2)OCC3=O)C1 (centres unmarked) [Compound 1106]
activation at 3 µg/mL (Purkinje fiber; dose 3 μg/ml): 8%
activation at 10 µg/mL (Purkinje fiber; dose 10 μg/ml): 13%

O=C1COc2cc(OCCCN3CCCCC3)ccc21 [Compound 1108]
activation at 1 µg/mL (Purkinje fiber; dose 1 μg/ml): 0%
activation at 3 µg/mL (Purkinje fiber; dose 3 μg/ml): 7%
APD75 % (percent change in APD75) (Purkinje fiber; dose 10 μg/ml): 9%

CC[N+]1(CCCOc2ccc3c(c2)OCC3=O)CCCC(C)C1 (centres unmarked) [Compound 1119]
activation at 3 µg/mL (Purkinje fiber; dose 3 μg/ml): 4%

CCCC1CCCCN1CCCOc1ccc2c(c1)OCC2=O (centres unmarked) [Compound 1134]
activation at 1 µg/mL (Purkinje fiber; dose 1 μg/ml): 7%
activation at 3 µg/mL (Purkinje fiber; dose 3 μg/ml): 9%

O=C1COc2cc(OCCCN3CCOCC3)ccc21 [Compound 1166]
activation at 1 µg/mL (Purkinje fiber; dose 1 μg/ml): 4%
activation at 3 µg/mL (Purkinje fiber; dose 3 μg/ml): 6%

O=C1COc2cc(OCCCN3CC4CCC(CC4)C3)ccc21 [Compound 1198]
activation at 1 µg/mL (Purkinje fiber; dose 1 μg/ml): 4%
activation at 3 µg/mL (Purkinje fiber; dose 3 μg/ml): 6%

O=C1COc2cc(OCCCN3CCCC(CO)C3)ccc21 (centres unmarked) [Compound 1214]
activation at 3 µg/mL (Purkinje fiber; dose 3 μg/ml): 4%

CS(=O)(=O)Nc1ccc(C2CCN(CCCOc3ccc4c(c3)OCC4=O)CC2)cc1 [Compound 1304]
LD50 at 24 h (in vivo): > 300 mg/kg

CC(C)NCC(O)c1ccc(NS(C)(=O)=O)cc1 (centres unmarked) [Sotalol, reference compound]
change in vivo at 0.1 mg/kg [1]: 1.7 ± 1.7%
change in vivo at 0.3 mg/kg [1]: 6.7 ± 0.9%
change in vivo at 1 mg/kg [1]: 8.7 ± 1.2%
change in vivo at 3 mg/kg [1]: 15.5 ± 0.5%
